In PMC7331731, “Activity of vitamin D receptor agonists against dengue virus” (Scientific Reports, 2020):

Experiments:
[1] = test system: DENV infected monocytic U937 cells or hepatic Huh-7 cells; set-up: method as in PMID 22387385; conditions: U937 or Huh-7 cells; cited from earlier work
[2] = test system: DENV 2; assay: DENV 2 virus titer in supernatant by standard plaque assay (infected HEK293T/17 cells); type: cell-based, dengue virus; conditions: for virus titer, treatment at 6 and 12 h post-infection: read at 24 h.p.i.; for EC50: HEK293T/17 cells, DENV 2 MOI 5, post-infection treatment, virus titer at 24 h by plaque assay
Experimental: Human embryonic kidney HEK293T/17 (ATCC No. CRL-11268) and human hepatocellular HepG2 (ATCC No. HB-8065) cells were cultured in complete medium, composed of Dulbecco’s modified Eagle medium (DMEM; Gibco BRL) supplemented with 10% heat-inactivated fetal bovine serum (FBS) at 37 °C with 5% CO2. Dengue virus serotype 2 (DENV 2) strain 16681, DENV 1 (strain 16007), DENV 3 (strain 16562), DENV 4 (strain 1036), ZIKV (strain SV0010/15) and JEV (strain BJ1) were all propagated in the Aedes albopictus cell line C6/36 (ATCC No. CRL-1660). Viral progenies in the supernatant were collected and centrifuged at 1,000g to remove cell debris. The virus stocks were kept at − 80 °C until used. Virus titers were determined by standard plaque assay on LLC-MK2 cells (ATCC No. CCL-7).
(§1) HEK293T/17 cells were cultured on 6-well plates until 70% confluence was reached under standard conditions. The cells were mock-infected or infected with DENV 2 at a multiplicity (MOI) of 5 for 2 h. After infection, the medium was removed and the infected cells were incubated with appropriate concentrations of the VDR agonists until 24 h.p.i., in parallel with DMSO treated control cells. Experiments were performed independently triplicate.
(§2) For time course experiments, under conditions of pre-infection treatment, HEK293T/17 cells were pre-treated with an appropriate concentration of VDR agonists for 1, 3 or 6 h before infection, followed by incubation in complete medium. For treatment post-infection, infected cells were treated with VDR agonists at 0, 1, 3, 6 and 12 h.p.i. The infected cells and supernatant for both pre- and post-treated samples were collected at 24 h.p.i. Experiments were performed independently triplicate.

[3] = test system: DENV 2; assay: Level of DENV 2 infection by flow cytometry (HEK293T/17 cells); type: cell-based, dengue virus; conditions: for level of infection: HEK293T/17, vs 0.01% DMSO control; for level of infection, treatment at 6 and 12 h post-infection: read at 24 h.p.i.
Experimental: as §1, §2
HEK293T/17 cells were mock-infected or infected with DENV 2 at MOI 5 for 2 h, followed by treatment with the appropriate concentration of VDR agonists. At 24 hpi, the treated cells were harvested and Fc receptors were blocked with 10% goat serum (Gibco BRL, Gaithersburg, MD) for 30 min at 4 °C. The cells were washed with 1% BSA in 1X PBS/IFA (150 mM NaCl, 50 mM NaH2PO4, 50 m M Na2HPO4, pH to 7.4) and centrifuged at 6,000 g for 5 min. Then, the cells were fixed with 4% paraformaldehyde in 1X PBS/IFA at room temperature in the dark for 20 min, followed by the washing. Cell membrane permeabilization was performed using 0.2%Triton-X in 1X PBS/IFA for 10 min in the dark followed by overnight incubation with a 1:150 dilution of a pan-specific mouse monoclonal anti-dengue E protein antibody (HB114[44]). Cells were subsequently incubated for 1 h in the dark with a 1:40 dilution of a fluorescein isothiocyanate (FITC)-conjugated goat anti-mouse IgG antibody (KPL, Guilford, UK) with washing between each step 1% BSA/PBS-IFA. Finally, the cells were analyzed by flow cytometry on a BD FACSCalibur cytometer (Becton Dickinson, BD Biosciences, San Jose, CA) using the CELLQuest software. All experiments were performed independently in triplicate.

[4] = test system: VDR; assay: VDR-regulated gene expression by qRT-PCR, VDR; type: cell-based, human; conditions: 20 µM, 24 h, HEK293T/17, vs actin and 0.02% DMSO
Experimental: (§3) HEK293T/17 cells were incubated with either 10 µM of VDR agonists or 20 μM of commercial VDR agonist EB1089 (Tocris Cookson Ltd., Bristol, UK) for 24 h. Subsequently, the treated cell lysate was collected to determine the mRNA levels of the VDR gene as well as genes regulated by VDR. Total RNA was extracted and cDNA was synthesized as described above. Amplification was performed using specific primers, namely VDR-F: 5′-[…]-3′, VDR-R: 5′-AGTGGCGTCGGTTGTCCTT-3′, CYP27B1-F: 5′-[…]-3′, CYP27B1-R 5′-[…]-3′, CYP24A1-F: 5′-[…]-3′ and CYP24A1-R 5′-[…]-3′. The mRNA expression was normalized against β-actin and DMSO control-treated cells, respectively according to the following equation: ΔΔCt = ΔCt (gene)—ΔCt (DMSO). Experiments were performed independently in triplicate with triplicate real-time PCR.

[5] = test system: CYP27B1; assay: VDR-regulated gene expression by qRT-PCR, CYP27B1; type: cell-based, human; conditions: 20 µM, 24 h, HEK293T/17, vs actin and 0.02% DMSO
Experimental: as §3

[6] = test system: CYP24A1; assay: VDR-regulated gene expression by qRT-PCR, CYP24A1; type: cell-based, human; conditions: 20 µM, 24 h, HEK293T/17, vs actin and 0.02% DMSO
Experimental: as §3

[7] = test system: DENV 2; assay: Level of DENV 2 infection in HepG2 cells by flow cytometry; type: cell-based, dengue virus; conditions: 10 μM, 24 h, DENV 2 MOI 5
Experimental: Given that HEK293T/17 cells are not representative of a DENV target tissue, the antiviral activity of the VDR agonists was evaluated in cells representative of a primary target cell. For this reason, HepG2 cells were infected with DENV 2, followed by treatment with 10 μM of the five effective VDR agonists (ZD-1, ZD-2, ZD-3, ZD-5, and ZD-6) for 24 h, after which the level of infection was determined by flow cytometry.
Figure 5 Antiviral activity of VDR agonists against DENV infection on HepG2 cells. HepG2 cells were mock-infected or infected with DENV 2 at MOI 5 for 2 h, followed by the treatment with 10 μM of ZD-1, ZD-2, ZD-3, ZD-5 and ZD-6 for 24 h.p.i. The treated cells were collected and level of infection determined by flow cytometry. p value; *< 0.05, **< 0.01, ***< 0.001 for significance. The experiment was performed independently in triplicate.
HEK293T/17 cells were mock-infected or infected with DENV 2 at MOI 5 for 2 h, followed by treatment with the appropriate concentration of VDR agonists. At 24 hpi, the treated cells were harvested and Fc receptors were blocked with 10% goat serum (Gibco BRL, Gaithersburg, MD) for 30 min at 4 °C. […] Finally, the cells were analyzed by flow cytometry on a BD FACSCalibur cytometer (Becton Dickinson, BD Biosciences, San Jose, CA) using the CELLQuest software. […]

[8] = test system: HEK293T/17 cells
[9] = test system: DENV 1 (strain 16007); assay: Virus titer by plaque assay, DENV 1; type: cell-based, dengue virus; conditions: 10 μM, 24 h, HEK293T/17, MOI 10
Experimental: (§4) For viruses other than DENV 2, HEK293T/17 cells were infected with DENV 1 (strain 16007), DENV 3 (strain 16562), DENV 4 (strain 1036) and ZIKV (strain SV0010/15) at MOI 10 and with JEV (strain BJ1) at MOI 1. At 2 h.p.i., the virus was removed and the cells were incubated with 10 μM of VDR agonist (ZD-6) in complete medium for 24 h, after which the supernatant was collected, and the virus titer was determined by standard plaque assay. Experiments were performed independently triplicate.

[10] = test system: DENV 3 (strain 16562); assay: Virus titer by plaque assay, DENV 3; type: cell-based, dengue virus; conditions: 10 μM, 24 h, HEK293T/17, MOI 10
Experimental: as §4

[11] = test system: DENV 4 (strain 1036); assay: Virus titer by plaque assay, DENV 4; type: cell-based, dengue virus; conditions: 10 μM, 24 h, HEK293T/17, MOI 10
Experimental: as §4

[12] = test system: JEV (strain BJ1); assay: Virus titer by plaque assay, JEV; type: cell-based; conditions: 10 μM, 24 h, HEK293T/17, MOI 1
Experimental: as §4

[13] = test system: ZIKV (strain SV0010/15); assay: Virus titer by plaque assay, ZIKV; type: cell-based; conditions: 10 μM, 24 h, HEK293T/17, MOI 10
Experimental: as §4

[14] = test system: DENV 1, 3, 4, JEV and ZIKV; assay: Activity against other flaviviruses, plaque assay (all viruses together); type: cell-based; conditions: 10 μM, 24 h, HEK293T/17, range over DENV 1, 3, 4, JEV, lowest for JEV and ZIKV
Experimental: as §4

[15] = 20 μM, 24 h.p.i., HEK293T/17, plaque assay
[16] = 10 µM, 24 h, HEK293T/17, plaque assay

Row | Structure (SMILES) | reduction of virus production [2, 16] | EC50 [2] [µM] | level of infection ([3]; 10 µM, 24 h) | CC50 [8] [µM] | also measured
1 | C=C1/C(=C\C=C2/CCC[C@]3(C)[C@@H]([C@H](C)CCCC(C)(C)O)CC[C@@H]23)C[C@@H](O)C[C@@H]1O [1,25(OH)2D3, 1,25-dihydroxyvitamin D3] |  |  |  |  | numbers of infected cells [1]: decreased numbers of infected cells
2 | C=C1/C(=C\C=C2/CCC[C@]3(C)[C@@H]([C@H](C)/C=C/C=C/C(O)(CC)CC)CC[C@@H]23)C[C@@H](O)C[C@@H]1O [EB1089, reference compound] |  |  |  |  | reduction of viral production [2, 15]: approximately 2 Log10; viral yield [2, 15]: significantly reduced; levels of infected cells ([3]; 20 μM, 24 h.p.i., HEK293T/17): significantly reduced; transcriptional level of VDR [4]: significantly up regulated; transcriptional level of CYP27B1 [5]: significantly up regulated; transcriptional level of CYP24A1 [6]: significantly up regulated
3 | O=C1C2CCCN2C(c2ccco2)N1c1ccc([N+](=O)[O-])cc1 (stereo not drawn) [ZD-1] | 2-3 Log10 | 8.74 | highly significant reductions | 260 | virus titer, treatment at 6 and 12 h post-infection ([2]; 10 µM): significant reductions; level of infection, treatment at 6 and 12 h post-infection ([3]; 10 µM): significant reductions; level of infection in HepG2 cells [7]: modest
4 | COc1cc(C2N(c3ccc([N+](=O)[O-])cc3)C(=O)C3CCCN32)ccc1O (stereo not drawn) [ZD-2] | 2-3 Log10 | 11.8 | highly significant reductions | 314 | 
5 | CSCCC(N)C(=O)Oc1ccc(C2N(c3ccc([N+](=O)[O-])cc3)C(=O)C3CCCN32)cc1.Cl (stereo not drawn) [ZD-3] |  | 7.47 | highly significant reductions | 394 | 
6 | CSCCC(NC(=O)OC(C)(C)C)C(=O)Nc1ccc(C2N(c3ccc([N+](=O)[O-])cc3)C(=O)C3CCCN32)cc1 (stereo not drawn) [ZD-4] | over 1 Log10 | 33.5 |  | 520 | infection levels reduced by ([3]; 10 µM, 24 h, HEK293T/17): approximately 50%
7 | COc1ccc(CC2N(c3ccc([N+](=O)[O-])cc3)C(=O)C3CCCN32)cc1OC (stereo not drawn) [ZD-5] | 2-3 Log10 | 8.46 | highly significant reductions | 439 | virus titer, treatment at 6 and 12 h post-infection ([2]; 10 µM): significant reductions; level of infection, treatment at 6 and 12 h post-infection ([3]; 10 µM): significant reductions
8 | O=C1C2CCCN2C(c2ccc(O)cc2)N1c1ccc([N+](=O)[O-])cc1 (stereo not drawn) [ZD-6] | 2-3 Log10 | 11.3 | highly significant reductions | 277 | virus production, DENV 1 [9]: significantly inhibited; virus production, DENV 3 [10]: significantly inhibited; virus production, DENV 4 [11]: significantly inhibited; virus production, JEV [12]: significantly inhibited; virus production, ZIKV [13]: significantly inhibited; magnitude of inhibition of virus production [14]: 1–3 Log10
9 | CSCCC(NC(=O)OC(C)(C)C)C(=O)Oc1ccc(C2N(c3ccc([N+](=O)[O-])cc3)C(=O)C3CCCN32)cc1 (stereo not drawn) [ZD-20] |  | 152 | no significant reduction | 908 | effect on DENV 2 titer in the supernatant [2, 16]: no significant effect
